Assays:
[1] = assumed default for neutral and acidic compounds, no experimental data; cited from earlier work
recombinant human AChE = biological target: T1, recombinant human AChE (Homo sapiens, UniProt P22303); experiment: In vitro AChE inhibition assay with recombinant human AChE in low-protein medium; type: biochemical
T1 construct: purchased Sigma-Aldrich (St. Louis, MO, USA)
Experimental: (§1) Inhibition of rat and human erythrocyte AChE by FNT and FNO was determined using rat and human blood. Additionally, in vitro AChE inhibition assay was also performed by exposing recombinant human AChE and self-prepared rat erythrocyte AChE to FNT and FNO in a low-protein medium to investigate the potential effect induced by blood matrix. Details are provided in the Supporting Information. […]
(§2) the remaining AChE activity in rat and human blood samples, respectively. Assays were conducted in triplicate, and the data obtained were analyzed in GraphPad Prism (version 5.04, San Diego, CA, USA) to define the concentration resulting in 50% inhibition (IC50).
(§3) In vitro AChE inhibition assay with self-prepared rat erythrocyte AChE and recombinant human […]
(§4) Based on the method described in Zhao et al. (2021), rat erythrocyte AChE was prepared from rat whole blood and the AChE activity was quantified (0.16 U/mL). The inhibition ability of FNT and FNO towards rhAChE and rat erythrocyte AChE was evaluated using a modified protocol (Zhao et al. 2021), and assays were conducted in triplicate. […] After 15 min incubation at 37℃, 150 µL reaction reagent (mixture of ATC at a final concentration of 150 µM and DTNB at a final concentration of 75 µM) was added, and the absorbance at 412 nm was measured continuously for 10 min at 37℃ to test the remaining AChE activity. The AChE activity was expressed as the remaining AChE activity relative to solvent control (100% activity) and positive control (0% activity) based on the equation (Eq S2): […]
(§5) A 412(t10 - t0) Test Compoundwhere is the change of the absorbance at 412 nm between 0 min and 10 min for the test compound; similarly, A 412(t10 - t0) Positive Control is the change of the absorbance for the CPO sample, and A 412(t10 - t0) Solvent Control the change of the absorbance for the 0.2% ethanol sample. […]
(§6) is relevant for the toxicity prediction following acute FNT exposure. The normalized sensitivity coefficients (SCs) were calculated with the equation (Eq S3)

rat erythrocyte AChE = biological target: T2, rat erythrocyte AChE (Rattus norvegicus, UniProt P37136); experiment: In vitro AChE inhibition assay with rat blood; type: biochemical
T2 construct: tissue Innovative Research Inc. (Novi, MI, USA); host or cells: rat whole blood (Sprague-Dawley), K2EDTA
Experimental: as §1
(§7) Calculation of kinetic parameters […]
(§8) Protein concentration determination for rat and human plasma […]
(§9) In vitro AChE inhibition assay with rat and human blood
(§10) Inhibition of rat and human erythrocyte AChE by FNT and FNO was determined using the protocol from Kasteel et al. (2021). The final concentrations of FNT and FNO in rat and human blood ranged from 0.05 to 500 µM and from 0.01 to 20 µM, respectively (added from 1000 times concentrated stock solutions in ethanol). Absorbance at 436 nm was measured continuously for 60 min and 10 min to detect […]
(§11) the remaining AChE activity in rat and human blood samples, respectively. Assays were conducted in triplicate, and the data obtained were analyzed in GraphPad Prism (version 5.04, San Diego, CA, USA) to define the concentration resulting in 50% inhibition (IC50). […]

human erythrocyte AChE = biological target: T3, human erythrocyte AChE (Homo sapiens, UniProt P22303); experiment: In vitro AChE inhibition assay with human blood; type: biochemical
T3 construct: tissue CTIBiotech (Lyon, France); host or cells: human whole peripheral blood, K2EDTA
Experimental: as §1, §7, §8, §9, §10, §11

[2] = biological target: T4, self-prepared rat erythrocyte AChE (Rattus norvegicus, UniProt P37136); experiment: In vitro AChE inhibition assay with self-prepared rat erythrocyte AChE in low-protein medium; type: biochemical
T4 construct: rat erythrocyte AChE was prepared from rat whole; tissue BioIVT (West Sussex, UK); host or cells: rat whole blood (Sprague-Dawley, mixed gender, LiHep); erythrocyte AChE prepared in house
Experimental: as §1, §2, §3, §4, §5, §6

T1 sequence (P22303 32-614): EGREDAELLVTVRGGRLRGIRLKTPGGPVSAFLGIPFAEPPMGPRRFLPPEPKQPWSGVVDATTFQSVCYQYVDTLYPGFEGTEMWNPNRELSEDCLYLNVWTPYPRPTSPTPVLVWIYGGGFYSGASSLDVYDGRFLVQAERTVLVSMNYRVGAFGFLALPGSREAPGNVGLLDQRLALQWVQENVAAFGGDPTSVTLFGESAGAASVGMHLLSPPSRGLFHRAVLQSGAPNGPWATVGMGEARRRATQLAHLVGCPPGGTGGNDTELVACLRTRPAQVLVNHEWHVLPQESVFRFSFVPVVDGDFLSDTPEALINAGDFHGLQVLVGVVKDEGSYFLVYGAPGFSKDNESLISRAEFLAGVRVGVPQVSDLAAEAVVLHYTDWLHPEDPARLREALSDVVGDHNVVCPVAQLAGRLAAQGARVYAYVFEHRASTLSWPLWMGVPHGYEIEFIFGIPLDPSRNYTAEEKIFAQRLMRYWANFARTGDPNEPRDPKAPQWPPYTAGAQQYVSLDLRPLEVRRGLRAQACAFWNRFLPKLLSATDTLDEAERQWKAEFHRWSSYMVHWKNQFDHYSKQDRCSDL
T4 sequence (P37136 other isoform, or with tags, fused parts or gaps): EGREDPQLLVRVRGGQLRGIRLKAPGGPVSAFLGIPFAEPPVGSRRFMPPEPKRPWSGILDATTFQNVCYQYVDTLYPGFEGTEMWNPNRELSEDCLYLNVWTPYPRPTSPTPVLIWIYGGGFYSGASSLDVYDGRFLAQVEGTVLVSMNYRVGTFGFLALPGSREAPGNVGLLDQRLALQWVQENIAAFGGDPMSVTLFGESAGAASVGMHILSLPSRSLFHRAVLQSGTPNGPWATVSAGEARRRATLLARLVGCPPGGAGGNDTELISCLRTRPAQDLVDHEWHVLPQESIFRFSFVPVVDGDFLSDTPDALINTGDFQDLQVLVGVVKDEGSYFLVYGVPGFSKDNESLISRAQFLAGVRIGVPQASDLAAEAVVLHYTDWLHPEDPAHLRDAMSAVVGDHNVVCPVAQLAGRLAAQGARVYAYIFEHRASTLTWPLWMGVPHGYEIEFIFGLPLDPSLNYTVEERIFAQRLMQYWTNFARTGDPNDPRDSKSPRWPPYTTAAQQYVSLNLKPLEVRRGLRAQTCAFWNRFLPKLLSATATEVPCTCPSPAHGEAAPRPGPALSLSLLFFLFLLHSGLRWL
T3 sequence (P22303 32-617 isoform P22303-2 limits assumed): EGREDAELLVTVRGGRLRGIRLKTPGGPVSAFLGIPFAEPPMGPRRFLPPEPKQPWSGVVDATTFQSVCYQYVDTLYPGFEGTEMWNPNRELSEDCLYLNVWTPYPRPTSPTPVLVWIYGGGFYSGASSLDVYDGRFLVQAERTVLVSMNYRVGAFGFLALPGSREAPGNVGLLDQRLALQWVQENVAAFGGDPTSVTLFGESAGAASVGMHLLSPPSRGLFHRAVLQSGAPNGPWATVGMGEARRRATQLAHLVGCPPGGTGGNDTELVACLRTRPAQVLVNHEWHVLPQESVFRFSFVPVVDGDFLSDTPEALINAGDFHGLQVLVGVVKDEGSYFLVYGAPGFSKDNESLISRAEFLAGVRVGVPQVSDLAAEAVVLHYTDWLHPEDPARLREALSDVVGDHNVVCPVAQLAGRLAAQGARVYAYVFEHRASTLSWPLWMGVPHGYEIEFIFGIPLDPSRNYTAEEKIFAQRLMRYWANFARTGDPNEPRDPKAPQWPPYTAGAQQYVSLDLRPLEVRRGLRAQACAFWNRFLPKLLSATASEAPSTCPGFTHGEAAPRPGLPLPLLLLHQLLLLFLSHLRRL
T2 sequence (P37136 other isoform, or with tags, fused parts or gaps): as the sequence (P37136 other isoform, or with tags, fused parts or gaps) above

Compound | blood plasma ratio (BPr) [1] | IC50 (recombinant human AChE) | IC50 fold lower with recombinant human AChE than in human blood (recombinant human AChE; ratio of IC50 in human blood to IC50 with recombinant enzyme) | IC50 (rat erythrocyte AChE) | IC50 (human erythrocyte AChE) | IC50 [2] | IC50 fold lower with self-prepared rat erythrocyte AChE than in rat blood ([2]; ratio of IC50 in rat blood to IC50 with self-prepared enzyme)
COP(=O)(OC)Oc1ccc([N+](=O)[O-])c(C)c1 [FNO, fenitrooxon] | 0.55 | 250 nM | 3.4 fold | 950 nM | 840 nM | 180 nM | 5.3 fold
COP(=S)(OC)Oc1ccc([N+](=O)[O-])c(C)c1 [FNT, O,O-dimethyl O-4-nitro-m-tolyl phosphorothioate] | 0.55 | 30900 nM |  | ~500000 nM | > 500000 nM | 8240 nM | 

Reference: publication PMC10720383, “Acetylcholinesterase Inhibition in Rats and Humans Following Acute Fenitrothion Exposure Predicted by Physiologically Based Kinetic Modeling-Facilitated Quantitative In Vitro to In Vivo Extrapolation” (Environmental Science & Technology, 2023)
